Patent US10076511B2, “Bisamide derivative of dicarboxylic acid as an agent for stimulating tissue regeneration and recovery of diminished tissue function” (TREAMID GmbH, priority 2015, dated 2018)

Key:
Wistar rats = assay: Pair-test of sexual behavior, rats of late reproductive (14 months) and presenile (19 months) age; assay type: in vivo, rat; details: for EN (the number of ejaculations) / LFM (latency until the first mount) / MN (the number of mounts): 14-month rats
Method: Erectile dysfunction was simulated by using animals of late and senile reproductive age (14-19 months). Suppression of sexual motivation was simulated by using animals of late reproductive age (14 months).
Experiments on studying the effect of Treamid on copulatory activity were carried out on 76 Wistar rats (14 months and 19 months of age). Treamid was administered intragastrically for 14 days at a dose of 5 mg/kg. Reference drug Sildenafil (100 mg, PFIZER PGM, France) was also administered intragastrically, which corresponded to clinical use, at a dose of 3 mg/kg twice a week. The sexual activity was estimated by the pair-test of sexual behavior. For this purpose female rats in the estrus stage caused by a preliminary 4-fold injection of the Synestrel were involved in the experiment. The effectiveness of Treamid was estimated by the following indices: latency until the first mating attempt (LFM), the number of mating attempts (MN), and the number of ejaculations (EN). The obtained data were compared with those of the same animals before the administration of Treamid (the first test) and with the data in the control group (the second test).

male rats = assay: Morphological and functional state of spermatogenic tissue after Paclitaxel; assay type: in vivo, rat
Method: The latter was simulated by a single injection of cytostatic drug Paclitaxel (Mitotax, Dr. Reddy's, India) to male rats (3 months of age). The choice of the drug was due to the fact that it is one of the medications that damage the precursors of spermatogenesis—stem cells.
Paclitaxel was administered to the animals of the control and test groups once intravenously at the maximum tolerated dose of 7.6 mg/kg. Treamid was administered to the animals of the experimental groups intragastrically at a dose of 5 mg/kg in the form of a suspension in 2% starch mucus for 15 days a month after the administration of Paclitaxel. The control animals received an equivalent volume of the solvent (2% starch mucus), instead of the test compound.
Morphological and functional state of the spermatogenic tissue was assessed to obtain an additional confirmation of the efficiency to stimulate the formation of committed stem cells.
It was estimated by the following indices: the number of cells in the spermatogonial population, the average number of Sertoli cells, the degree of maturity of the spermatogenic layer, the number of Leydig cells, the endocrine activity of the testis, the total number of sperm cells per epididymis, and the percentage of motile sperm forms. For this, in euthanasia on Day 45, Day 65, and Day 90 of the experiment, the tail part of epididymis and testis were isolated at dissection. The epididymis of one testis was homogenized in a warm (37° C.) physiological saline, and the number of motile sperm forms was determined in the suspension of the epididymis cells. The total number of sperm cells per epididymis (TNS) was calculated by using a homogenized cell suspension of the second epididymis in a dosage amount of physiological saline using a leukocyte-count pipette and Goryaev chamber.
A morphological assay of the testes of rats was performed by fixation thereof in Carnoy's fluid and by preparing paraffin sections. Deparaffined sections of a thickness of 5 μm were stained with hematoxylin-eosin. The number of cells in the spermatogonial population, the number of Sertoli cells, and the number of Leydig cells were counted on the testis section, and the endocrine activity of Leydig cells was determined. The degree of maturity of the spermatogenic layer was calculated based on the count of Sertoli cells. The calculation was carried out according to the formula for the experimental groups: y=5.95-0.18x; for the group of intact animals: y=6.7-0.23x, where x is the average number of Sertoli cells in the cross-section of the convoluted seminiferous tubule, and y is the index characterizing the degree of maturity of the spermatogenic layer. When choosing the time for studies, the duration of spermatogenesis in rats was taken into account, which was one and a half months. The duration of 45 and 65 days after administration of Paclitaxel corresponds to the manifestation of effects on the spermatogonial cell population.
The criteria for stimulation of the process of regeneration of the testicular tissue were: an increase in the number of cells in the spermatogonial populations, the number of Sertoli cells, a decrease in the degree of maturity of the spermatogenic layer, and an increase in the productivity of spermatogenesis. The criterion of the functional activity of sperm cells is the percentage of their motile forms.

[1] = First test, before administration of drugs
[2] = Second test, after 14-day administration course, Treamid 5 mg/kg, Sildenafil 3 mg/kg
[3] = 19-month rats, First test (before administration of drugs)
[4] = 19-month rats, Second test (after 14-day administration course), Treamid 5.0 mg/kg
[5] = Day 45 after Paclitaxel, Treamid 5 mg/kg
[6] = Day 65 after Paclitaxel, Treamid 5 mg/kg
[7] = Day 90 after Paclitaxel, Treamid 5 mg/kg

O=C(CCCC(=O)NCCc1ncc[nH]1)NCCc1ncc[nH]1 [Treamid]
EN (the number of ejaculations) (Wistar rats; [1]): 0.00 ± 0.00 | LFM (latency until the first mount) (Wistar rats; [1]): 559.08 ± 93.55 | MN (the number of mounts) (Wistar rats; [1]): 1.42 ± 0.50 | EN (the number of ejaculations) (Wistar rats; [2]): 0.60 ± 0.22⋄* | MN (the number of mounts) (Wistar rats; [2]): 6.90 ± 1.88⋄ | LFM (latency until the first mount) (Wistar rats; Second test, after 14-day administration course, Treamid 5 mg/kg, Sildenafil 3 mg/kg intragastrically): 364.80 ± 127.66 | EN (abs.) (Wistar rats; [3]): 0.00 ± 0.00 abs. | LFM (Wistar rats; [3]): 310.27 ± 94.59 s | MN (abs.) (Wistar rats; [3]): 4.27 ± 1.04 abs. | EN (Wistar rats; [4]): 0.20 ± 0.13⋄* | LFM (Wistar rats; [4]): 297.20 ± 117.04 s | MN (abs.) (Wistar rats; [4]): 7.90 ± 1.45⋄ abs. | Number of motile sperm cells (%) (male rats; [5]): 71.57 ± 3.19 % | The average number of Sertoli cells (abs.) (male rats; [5]): 1.61 ± 0.03 abs. | The average number of spermatogonia (abs.) (male rats; [5]): 14.56 ± 0.19 abs. | The degree of maturity of the spermatogenic layer (standard units) (male rats; [5]): 5.66 ± 0.01 standard units | Total number of sperm cells (million) (male rats; [5]): 146.00 ± 9.53 million | growth of percentage of motile sperm forms in comparison with the control (male rats; Day 65): 32% | increase of productivity of spermatogenesis (TNS) in comparison with the control (male rats; Day 65): 43% | Endocrine activity of testes (male rats; [6]): 4.31 ± 0.24 | Number of Leydig cells (male rats; [6]): 9.48 ± 0.21 | Number of motile sperm cells (%) (male rats; [6]): 79.81 ± 1.61 % | The average number of Sertoli cells (abs.) (male rats; [6]): 2.30 ± 0.03 abs. | The average number of spermatogonia (abs.) (male rats; [6]): 13.07 ± 0.28 abs. | The degree of maturity of the spermatogenic layer (standard units) (male rats; [6]): 5.54 ± 0.00 standard units | Total number of sperm cells (million) (male rats; [6]): 145.20 ± 15.15 million | increase of productivity of spermatogenesis (TNS) in comparison with the control (male rats; Day 90): 46% | Endocrine activity (male rats; [7]): 4.74 ± 4.04 | Number of motile sperm cells (%) (male rats; [7]): 67.80 ± 1.14 % | The average number of Leydig cells (male rats; [7]): 9.93 ± 0.08 | The average number of Sertoli cells (abs.) (male rats; [7]): 2.10 ± 0.06 abs. | The average number of spermatogonia (abs.) (male rats; [7]): 14.43 ± 0.21 abs. | The degree of maturity of the spermatogenic layer (standard units) (male rats; [7]): 5.57 ± 0.01 standard units | Total number of sperm cells (million) (male rats; [7]): 186.20 ± 12.74 million
